According to PubChem BioAssay (NCI):
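1) Cells in 96-well plates. 2) Compound, 48 h, 5 concentrations. 3) Linear interpolation between surrounding doses. 4) Unreached endpoint = highest concentration. GI50 marks 50% less growth. Definition used: TGI = concentration required for complete inhibition of growth.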

Tests used:
Assay in all cases: DTP human tumour cell line panel, 48 h
[1] = test system: UO-31 renal
[2] = test system: T-47D breast
[3] = test system: OVCAR-8 ovarian
[4] = test system: LOX IMVI melanoma
[5] = test system: MALME-3M melanoma
[6] = test system: NCI/ADR-RES ovarian
[7] = test system: MCF7 breast
[8] = test system: PC-3 prostate
[9] = test system: UACC-62 melanoma
[10] = test system: HS 578T breast
[11] = test system: SR leukemia
[12] = test system: HT29 colon
[13] = test system: DU-145 prostate
[14] = test system: NCI-H522 lung
[15] = test system: RXF 393 renal
[16] = test system: TK-10 renal
[17] = test system: MDA-MB-468 breast
[18] = test system: SNB-75 CNS
[19] = test system: MDA-MB-231 breast
[20] = test system: SK-MEL-28 melanoma
[21] = test system: SF-295 CNS
[22] = test system: OVCAR-3 ovarian
[23] = test system: SF-268 CNS
[24] = test system: IGROV1 ovarian
[25] = test system: U251 CNS
[26] = test system: NCI-H23 lung
[27] = test system: SN12C renal
[28] = test system: HCT-15 colon
[29] = test system: K-562 leukemia
[30] = test system: COLO 205 colon
[31] = test system: CCRF-CEM leukemia
[32] = test system: HL-60(TB) leukemia
[33] = test system: KM12 colon
[34] = test system: HCC-2998 colon
[35] = test system: M14 melanoma
[36] = test system: MOLT-4 leukemia
[37] = test system: BT-549 breast
[38] = test system: SK-MEL-2 melanoma
[39] = test system: A498 renal
[40] = test system: 786-0 renal
[41] = test system: EKVX NSCLC
[42] = test system: OVCAR-5 ovarian
[43] = test system: RPMI-8226 leukemia
[44] = test system: SNB-19 CNS
[45] = test system: NCI-H226 lung
[46] = test system: NCI-H460 lung
[47] = test system: HCT-116 colon
[48] = test system: UACC-257 melanoma
[49] = test system: HOP-62 NSCLC
[50] = test system: OVCAR-4 ovarian
[51] = test system: SK-OV-3 ovarian
[52] = test system: SF-539 CNS
[53] = test system: ACHN renal
[54] = test system: HOP-92 NSCLC
[55] = test system: CAKI-1 renal
[56] = test system: MDA-MB-435
[57] = test system: SW-620 colon
[58] = test system: SK-MEL-5 melanoma
[59] = test system: A549 NSCLC

**Q.** Which results are given for CCOc1ccc(/C=N/NC(=O)Cn2nc(Cc3ccc(OC)cc3)c3onc(C)c3c2=O)cc1?
**A.** GI50 [1]: 4.08 µM; TGI [1]: 19.5 µM; GI50 [2]: 3.46 µM; TGI [2]: 22.3 µM; GI50 [3]: 11.2 µM; TGI [3]: 42.1 µM; GI50 [4]: 10.9 µM; TGI [4]: 27.9 µM; GI50 [5]: 4.86 µM; TGI [5]: 19.5 µM; GI50 [6]: 5.35 µM; TGI [6]: 19.7 µM; GI50 [7]: 4.37 µM; TGI [7]: 23.9 µM; GI50 [8]: 12.4 µM; TGI [8]: 84.8 µM; GI50 [9]: 13.2 µM; TGI [9]: 32.7 µM; GI50 [10]: 4.26 µM; TGI [10]: 29 µM; GI50 [11]: 40.3 µM; TGI [11]: > 100 µM; GI50 [12]: 12.3 µM; TGI [12]: 32.9 µM; GI50 [13]: 9.35 µM; TGI [13]: 26.9 µM; GI50 [14]: 14.5 µM; TGI [14]: 37.7 µM; GI50 [15]: 2.71 µM; TGI [15]: 6.38 µM; GI50 [16]: 11 µM; TGI [16]: 28.8 µM; GI50 [17]: 9.93 µM; TGI [17]: 29.3 µM; GI50 [18]: 1.64 µM; TGI [18]: 3.42 µM; GI50 [19]: 9.23 µM; TGI [19]: 27.9 µM; GI50 [20]: 10.4 µM; TGI [20]: 24.8 µM; GI50 [21]: 6.77 µM; TGI [21]: 21.8 µM; GI50 [22]: 3.2 µM; TGI [22]: 10.4 µM; GI50 [23]: 10.5 µM; TGI [23]: 27.4 µM; GI50 [24]: 15.3 µM; TGI [24]: 43 µM; GI50 [25]: 3.96 µM; TGI [25]: 17.1 µM; GI50 [26]: 10.7 µM; TGI [26]: 33.1 µM; GI50 [27]: 3.42 µM; TGI [27]: 13.3 µM; GI50 [28]: 15.1 µM; TGI [28]: > 100 µM; GI50 [29]: 37.6 µM; TGI [29]: > 100 µM; GI50 [30]: 40 µM; TGI [30]: > 100 µM; GI50 [31]: 33.4 µM; TGI [31]: > 100 µM; GI50 [32]: 51.1 µM; TGI [32]: > 100 µM; GI50 [33]: 41.8 µM; TGI [33]: > 100 µM; GI50 [34]: 11 µM; TGI [34]: 27.4 µM; GI50 [35]: 13.7 µM; TGI [35]: 75.1 µM; GI50 [36]: 29.8 µM; TGI [36]: > 100 µM; GI50 [37]: 10.3 µM; TGI [37]: 27.1 µM; GI50 [38]: 18.4 µM; TGI [38]: 41 µM; GI50 [39]: 3.83 µM; TGI [39]: 13.7 µM; GI50 [40]: 2.99 µM; TGI [40]: 10.4 µM; GI50 [41]: 10.8 µM; TGI [41]: 30.3 µM; GI50 [42]: 14.4 µM; TGI [42]: 51.8 µM; GI50 [43]: 78.2 µM; TGI [43]: > 100 µM; GI50 [44]: 12.2 µM; TGI [44]: 32.4 µM; GI50 [45]: 3.43 µM; TGI [45]: 15.9 µM; GI50 [46]: 5.32 µM; TGI [46]: 19.2 µM; GI50 [47]: 3.39 µM; TGI [47]: 11.6 µM; GI50 [48]: 13.3 µM; TGI [48]: 60.9 µM; GI50 [49]: 4.8 µM; TGI [49]: 18.1 µM; GI50 [50]: 10.8 µM; TGI [50]: 25.3 µM; GI50 [51]: 4.12 µM; TGI [51]: 14.5 µM; GI50 [52]: 7.35 µM; TGI [52]: 20 µM; GI50 [53]: 3.33 µM; TGI [53]: 11 µM; GI50 [54]: 3.61 µM; TGI [54]: 16.5 µM; GI50 [55]: 3.8 µM; TGI [55]: 14.8 µM; GI50 [56]: 25.7 µM; TGI [56]: > 100 µM; GI50 [57]: 7.37 µM; TGI [57]: 36.5 µM; GI50 [58]: 39.7 µM; TGI [58]: > 100 µM; GI50 [59]: 3.43 µM; TGI [59]: 13.1 µM
